Entries after “also recorded” stand apart in the source; their conditions may differ.
How the values were obtained:
[1] = tested on: HCHF diet-induced obese rats; assay: Diet-induced obesity and metabolic syndrome, high carbohydrate high fat (HCHF) fed rats; assay type: in vivo, Wistar rat
Method: Selective PAR2 antagonist 52 was used to evaluate the therapeutic potential of PAR2 antagonism in regulating adiposity, adipose tissue inflammation and metabolic function in rats fed a diet high in carbohydrates and fats (HCHF). Weekly body weight measurements (0-16 weeks) were recorded for Corn Starch CS (●) and High Carbohydrate High Fat (HCHF) (∘)-fed rats (FIG. 13A), as well as for HCHF (∘) and HCHF+PAR2 antagonist 52 (▴)-treated rats (FIG. 13B). In addition, weekly waist circumference measurements were recorded for CS (●), HCHF (∘), HCHF+PAR2 antagonist 52 (▴)-treated rats (FIG. 13 C). FIG. 13 D illustrates […] body composition measurements in CS (▪), HCHF ( ? ), HCHF+PAR2 antagonist 52 (□)-treated rats.
Relative to rats fed a lean diet containing only corn starch (CS), those receiving the HCHF diet for 16 weeks become obese, gaining 54±4% body weight and 206±43% total fat mass, particularly visceral (abdominal) fat from week 0 to 16 (FIGS. 13A-G). FIG. 13F is an image of the abdominal fat pad at 16 weeks in rat given HCHF diet for 16 weeks, but no treatment. […] The increase in PAR2 expression in adipose tissue (FIG. 14A) and its two component fractions, adipocytes and stromal vascular cell (SVC) fractions (FIG. 14B), were all elevated by HCHF feeding, positively correlating with increased adiposity. Local adipose tissue inflammation was also elevated by HCHF feeding (FIG. 15A-F). Findings indicate that a different endogenous signal—saturated fatty acids such as palmitic acid consumed in a HCHF diet—can prime macrophages to increase their expression of PAR2.
The regulation of metabolic parameters by PAR2 antagonist 52 were measured in diet-induced obese rats including systolic blood pressure measurements in CS (●), HCHF (∘) and HCHF+52 (▴)-treated rats (FIG. 16 A), oral glucose tolerance in CS (●), HCHF (∘) and HCHF+PAR2 antagonist 52 (▴)-treated rats (FIG. 16 B), insulin tolerance in CS (●), HCHF (∘), HCHF+PAR2 antagonist 52 (▴)-treated rats (FIG. 16 C), plasma lipid concentrations in CS, HCHF and HCHF+PAR2 antagonist 52-treated rats (FIG. 16 D and plasma liver enzymes in CS, HCHF and HCHF+52-treated rats (FIG. 16 E, *P<0.05 vs CS; **P<0.05 vs HCHF).
FIGS. 17A-C show representative images (20× magnification) of hepatocyte ultrastructure and fat deposition in CS (A), HCHF (B) and HCHF+PAR2 antagonist 52 (C)-treated rats. […] FIG. 17E illustrates metabolic genes in rat liver of different groups. […] Expression of mRNA in was normalized against 18s rRNA and fold change was calculated relative to CS samples. Error bars are means±SEM; *P<0.05, **P<0.01, ***P<0.001.
Regulation of cardiovascular structure and function by PAR2 antagonist 52 in diet-induced obese rats was also measured (FIG. 18), including diastolic stiffness constant measurements in CS, HCHF, HCHF+ compound 52-treated rats (FIG. 18A) and echocardiographic characterization of cardiac structure in CS, HCHF (at 8 weeks before treatment), HCHF and HCHF+ compound 52-treated rats FIG. 18B. FIGS. 18C and D show echocardiographic characterization of cardiac function in CS, HCHF (at 8 weeks before treatment), HCHF and HCHF+ compound 52-treated rats. FIGS. 18E-G illustrate vascular organ bath responses for noradrenaline (E), sodium nitroprusside (F) and acetylcholine (G) in CS (●), HCHF (∘) and HCHF+[…] (▾)-treated rats. Representative images (40× magnification) of interstitial collagen deposition in the left ventricle of CS(H), HCHF (I) and HCHF+PAR2 antagonist 52 (J)-treated rats. FIGS. 18 K and L are graphical representations of the area of collagen deposition in perivascular (K) and interstitial (L) region of the left ventricle. *P<0.05 vs CS; **P<0.05 vs HCHF.

[2] = tested on: λ-carrageenan-induced paw oedema; assay: λ-carrageenan-induced paw oedema; assay type: in vivo, Wistar rat; conditions: 10 mg/kg p.o., 1% λ-carrageenan intraplantar
Method: Methods were based on literature (Kelso E B et al., J Pharmacol Exp Ther 2006, 316(3):1017-24; Kawabata A et al., Peptides 2001, 23(6):1181-3). Male Wistar rats (n=4 per group) were given 10 mg/kg PAR2 antagonist 52 (p.o. via gavage in olive oil, 500 μL). Control animals received only olive oil. Thirty minutes later, λ-carrageenan was administered into the right hind paw pad (1% w/v in saline, 100 μL, i.pl, Left paw saline control). Paw thickness and width were measured at 1-6, 8 and 24 h (as above) and swelling expressed in area (mm^2) and plotted as % change from baseline of each individual paw.

SMILES: CC[C@H](C)[C@@H](NC(=O)[C@H](CC1CCCCC1)NC(=O)c1ccno1)C(=O)N1CCC2(C=Cc3ccccc32)CC1 [Compound 52]
- body weight gain ([1]; 10 mg/kg/day oral, weeks 8-16): prevention
- metabolic indicators after 16 weeks of HCHF feeding ([1]; 10 mg/kg/day oral, weeks 8-16): attenuated or reversed
- total fat mass ([1]; 10 mg/kg/day oral, weeks 8-16): prevention
- visceral (abdominal) fat deposition ([1]; 10 mg/kg/day oral, weeks 8-16): prevention
- increased steatosis ([1]; HCHF rats): prevented
- M1-specific proinflammatory genes in adipose tissue ([1]; HCHF-fed rats): drastic decreased
- M2-specific genes (Mcr2, Mgl1, Ym1, Arg1) in adipose tissue ([1]; HCHF-fed rats): restored or upregulated
- altered Pparg, Ucp2 and Adipoq genes in retroperitoneal adipose tissue ([1]; HCHF-fed rats): attenuated these changes
- altered gene expression in skeletal muscle and pancreas ([1]; HCHF-fed rats): attenuated this altered gene expression
- development of diet-induced cardiac fibrosis (collagen deposition) ([1]; HCHF-fed rats): potent inhibitory effect
- insulin tolerance test ([1]; HCHF-fed rats): improved responsiveness to insulin; also recorded: comparable insulin sensitivity to untreated CS-fed rats
- oral glucose tolerance test ([1]; HCHF-fed rats): improved glucose tolerance
- pancreatic genes Glut2 and Beta2 ([1]; suppressed in HCHF-fed rats): restored; also recorded: normalized
- liver genes Pparg, Srebf1, Ucp2, Ppargc1a, Cpt and Pnpla2 ([1]; treated versus untreated HCHF rats): upregulation
- pancreatic genes Iapp, Atf3, Fas and Id-1 upregulated in HCHF rats ([1]; treatment in vivo): attenuated
- elevated triglycerides and systolic blood pressure ([1]; treatment weeks 8-16): except for elevated triglycerides and systolic blood pressure
- increase in PAR2 expression in whole adipose, adipocyte and stromovascular cells ([1]; treatment weeks 8-16): prevented
- metabolic parameters elevated on HCHF diet (glucose and insulin tolerance, plasma lipids, liver enzymes, cardiac structure and function) ([1]; treatment weeks 8-16): attenuated
- λ-carrageenan-induced oedema reduced to [2]: 50%

From patent publication US9868763B2, “Modulators of protease activated receptors” (The University of Queensland, priority 2011, dated 2018)
